Read-outs that look alike come from different tables or passages of the source.
Experiments:
Wee1 kinase = Wee1 kinase (Homo sapiens, UniProt P30291); experiment: Wee1 Binding Assay (FRET)
Description: Wee 1 kinase was determined by using Fluorescence Resonance Energy Transfer (FRET) assay. […] The plate was shaken for 30 seconds, incubated for 60 min at RT, and recorded on fluorescence plate reader.

H23 cells = experiment: H23 Cellular Proliferation Assay (CellTiter-Glo); type: cell-based; settings: Homo sapiens, NCI-H23, 96 h, 4 days, read-out: H23 CTG IC50
Description: H23 Cellular Proliferation Assay
Cells were treated with compounds diluted in DMSO and a 9 point 5-fold serial dilutions. Plates were placed in 37° C., 5% CO2 for to incubate for 4 days. Before they were developed by adding 100 μL of CellTiter-Glo reagent (Promega) to the assay plate, plates were shaken briefly for 2 mins and allowed to incubate at rt for 10 mins. The plates are read with a M5e plate reader according to CellTiter-Glo protocol. The GraphPad Prism software is used to get IC50 values.

[1] = FRET, Wee1 kinase 2 nM, tracer 178 50 nM, 60 min at RT, read-out: Wee1 enzymatic IC50

Wee1 kinase, sequence (P30291 whole entry): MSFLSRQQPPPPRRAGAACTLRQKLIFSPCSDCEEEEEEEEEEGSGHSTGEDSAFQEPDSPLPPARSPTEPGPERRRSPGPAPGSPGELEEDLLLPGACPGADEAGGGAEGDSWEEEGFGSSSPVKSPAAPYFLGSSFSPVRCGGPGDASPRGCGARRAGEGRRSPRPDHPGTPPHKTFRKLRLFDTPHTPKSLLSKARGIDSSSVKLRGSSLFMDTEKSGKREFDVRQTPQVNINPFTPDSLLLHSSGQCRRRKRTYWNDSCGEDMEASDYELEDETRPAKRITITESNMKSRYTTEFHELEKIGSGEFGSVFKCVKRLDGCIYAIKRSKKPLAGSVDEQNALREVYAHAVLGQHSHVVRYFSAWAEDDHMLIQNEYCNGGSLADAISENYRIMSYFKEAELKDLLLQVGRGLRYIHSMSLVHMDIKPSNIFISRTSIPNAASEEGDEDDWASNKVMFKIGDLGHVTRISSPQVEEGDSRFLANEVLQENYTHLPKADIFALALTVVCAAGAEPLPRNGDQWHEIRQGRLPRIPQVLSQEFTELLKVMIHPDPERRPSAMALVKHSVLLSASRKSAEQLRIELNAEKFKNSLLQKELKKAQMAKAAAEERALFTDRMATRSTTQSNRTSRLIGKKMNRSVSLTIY

IC50 (Wee1 kinase)	IC50 (Wee1 kinase; [1])	SMILES	IC50 (H23 cells)
< 10 nM	–	C=CCn1c(=O)c2cnc(Nc3ccc(N4CCN(C)CC4)cc3)nc2n1-c1ccc2c(n1)[C@](O)(CC)CCC2 (single isomer, unassigned) [Example 26A]	> 1000 nM
< 10 nM	–	C=CCn1c(=O)c2cnc(Nc3ccc(N4CCN(C)CC4)cc3)nc2n1-c1ccc2c(n1)[C@@](O)(CC)CCC2 (single isomer, unassigned) [Example 26B]	< 100 nM
–	< 10 nM	C=CCn1c(=O)c2cnc(Nc3ccc(N4CCN(C)CC4)c(C)c3)nc2n1-c1ccc2c(n1)[C@@](C)(O)CCC2 (single isomer, unassigned) [Example 27A]	100 to 1000 nM
–	< 10 nM	C=CCn1c(=O)c2cnc(Nc3ccc(N4CCN(C)CC4)c(C)c3)nc2n1-c1ccc2c(n1)[C@](C)(O)CCC2 (single isomer, unassigned) [Example 27B]	100 to 1000 nM
< 10 nM	–	C=CCn1c(=O)c2cnc(Nc3ccc4c(c3)CNCC43CC3)nc2n1-c1ccc2c(n1)[C@](O)(C(F)(F)F)CC2 (single isomer, unassigned) [Example 30A]	100 to 1000 nM
< 10 nM	–	C=CCn1c(=O)c2cnc(Nc3ccc4c(c3)CNCC43CC3)nc2n1-c1ccc2c(n1)[C@@](O)(C(F)(F)F)CC2 (single isomer, unassigned) [Example 30B]	100 to 1000 nM
–	10 to 100 nM	C=CCn1c(=O)c2cnc(Nc3ccc(N4CCN(C)CC4)cc3)nc2n1-c1cnc2c(c1)[C@@](C)(O)CO2 (single isomer, unassigned) [Example 35A, 2-allyl-1-(3-hydroxy-3-methyl-2,3-dihydrofuro[2,3-b]pyridin-5-yl)-6-((4-(4-methylpiperazin-1-yl)phenyl)amino)-1,2-dihydro-3H-pyrazolo[3,4-d]pyrimidin-3-one]	> 1000 nM
–	10 to 100 nM	C=CCn1c(=O)c2cnc(Nc3ccc(N4CCN(C)CC4)cc3)nc2n1-c1cnc2c(c1)[C@](C)(O)CO2 (single isomer, unassigned) [Example 35B]	> 1000 nM
–	10 to 100 nM	C=CCn1c(=O)c2cnc(Nc3ccc(N4CCN(C)CC4)cc3)nc2n1-c1cn2c(n1)[C@@](C)(O)CC2 (single isomer, unassigned) [Example 36A]	> 1000 nM
–	> 100 nM	C=CCn1c(=O)c2cnc(Nc3ccc(N4CCN(C)CC4)cc3)nc2n1-c1cn2c(n1)[C@](C)(O)CC2 (single isomer, unassigned) [Example 36B]	> 1000 nM

Further lines, the molecule ahead of its results:

SMILES	IC50 (Wee1 kinase)	IC50 (Wee1 kinase; [1])	IC50 (H23 cells)
C=CCn1c(=O)c2cnc(Nc3ccc(N4CCN(C)CC4)cc3)nc2n1-c1ccc2c(n1)[C@@](O)(CC)CC2 (single isomer, unassigned) [Example 9B]	< 10 nM	–	100 to 1000 nM
C=CCn1c(=O)c2cnc(Nc3ccc(N4CCN(C)CC4)c(C)c3)nc2n1-c1ccc2c(n1)[C@@](C)(O)CC2 (single isomer, unassigned) [Example 10A]	< 10 nM	–	100 to 1000 nM
C=CCn1c(=O)c2cnc(Nc3ccc(N4CCN(C)CC4)c(C)c3)nc2n1-c1ccc2c(n1)[C@](C)(O)CC2 (single isomer, unassigned) [Example 10B]	< 10 nM	–	100 to 1000 nM
C=CCn1c(=O)c2cnc(Nc3ccc(N4CCN(C)CC4)c(F)c3)nc2n1-c1ccc2c(n1)[C@@](C)(O)CC2 (single isomer, unassigned) [Example 11A]	–	< 10 nM	> 1000 nM
C=CCn1c(=O)c2cnc(Nc3ccc(N4CCN(C)CC4)c(F)c3)nc2n1-c1ccc2c(n1)[C@](C)(O)CC2 (single isomer, unassigned) [Example 11B]	–	< 10 nM	100 to 1000 nM
C=CCn1c(=O)c2cnc(Nc3ccc(N4CCN(C)CC4)c(C)c3)nc2n1-c1ccc2c(n1)[C@](O)(CC)CC2 (single isomer, unassigned) [Example 12A]	< 10 nM	–	100 to 1000 nM
C=CCn1c(=O)c2cnc(Nc3ccc(N4CCN(C)CC4)c(C)c3)nc2n1-c1ccc2c(n1)[C@@](O)(CC)CC2 (single isomer, unassigned) [Example 12B]	< 10 nM	–	< 100 nM
C=CCn1c(=O)c2cnc(Nc3ccc(N4CCN(C)CC4)cc3)nc2n1-c1ccc2c(n1)[C@](O)(C(F)F)CC2 (single isomer, unassigned) [Example 15A]	< 10 nM	–	> 1000 nM
C=CCn1c(=O)c2cnc(Nc3ccc(N4CCN(C)CC4)cc3)nc2n1-c1ccc2c(n1)[C@@](O)(C(F)F)CC2 (single isomer, unassigned) [Example 15B]	< 10 nM	–	100 to 1000 nM
C=CCn1c(=O)c2cnc(Nc3ccc(N4CCN(C)CC4)cc3)nc2n1-c1ccc2c(n1)[C@@](O)(C1CC1)CC2 (single isomer, unassigned) [Example 16B]	< 10 nM	–	100 to 1000 nM
C=CCn1c(=O)c2cnc(Nc3ccc(N4CCN(C)CC4)cc3)nc2n1-c1ccc2c(c1)[C@@](C)(O)CC2 (single isomer, unassigned) [Example 21A]	< 10 nM	–	> 1000 nM
C=CCn1c(=O)c2cnc(Nc3ccc(N4CCN(C)CC4)cc3)nc2n1-c1ccc2c(c1)[C@](C)(O)CC2 (single isomer, unassigned) [Example 21B]	< 10 nM	–	100 to 1000 nM
C=CCn1c(=O)c2cnc(Nc3ccc(N4CCN(C)CC4)cc3)nc2n1-c1ccc2c(c1)[C@](O)(CC)CC2 (single isomer, unassigned) [Example 22A]	–	10 to 100 nM	> 1000 nM
C=CCn1c(=O)c2cnc(Nc3ccc(N4CCN(C)CC4)cc3)nc2n1-c1ccc2c(c1)[C@@](O)(CC)CC2 (single isomer, unassigned) [Example 22B]	–	< 10 nM	100 to 1000 nM
C=CCn1c(=O)c2cnc(Nc3ccc(N4CCN(C)CC4)cc3)nc2n1-c1ccc2c(n1)[C@@](C)(O)CCC2 (single isomer, unassigned) [Example 25A]	< 10 nM	–	100 to 1000 nM
C=CCn1c(=O)c2cnc(Nc3ccc(N4CCN(C)CC4)cc3)nc2n1-c1ccc2c(n1)[C@](C)(O)CCC2 (single isomer, unassigned) [Example 25B]	< 10 nM	–	100 to 1000 nM
C=CCn1c(=O)c2cnc(Nc3ccc(N4CCNCC4)cc3)nc2n1-c1ccc2c(n1)C(F)(F)CC2 [Example 7, 2-Allyl-1-(7,7-difluoro-6,7-dihydro-5H-cyclopenta[b]pyridin-2-yl)-6-((4-(piperazin-1-yl)phenyl)amino)-1,2-dihydro-3H-pyrazolo[3,4-d]pyrimidin-3-one]	–	< 10 nM	> 1000 nM
C=CCn1c(=O)c2cnc(Nc3ccc(N4CCN(C)CC4)cc3)nc2n1-c1ccc2c(n1)C(F)(F)CC2 [Example 8, 2-Allyl-1-(7,7-difluoro-6,7-dihydro-5H-cyclopenta[b]pyridin-2-yl)-6-((4-(4-methylpiperazin-1-yl)phenyl)amino)-1,2-dihydro-3H-pyrazolo[3,4-d]pyrimidin-3-one]	< 10 nM	–	100 to 1000 nM
C=CCn1c(=O)c2cnc(Nc3ccc(N4CCN(C)CC4)cc3)nc2n1-c1cn2c(n1)COCC2 [Example 32, 2-allyl-1-(5,6-dihydro-8H-imidazo[2,1-c][1,4]oxazin-2-yl)-6-((4-(4-methylpiperazin-1-yl)phenyl)amino)-1,2-dihydro-3H-pyrazolo[3,4-d]pyrimidin-3-one]	–	10 to 100 nM	> 1000 nM
C=CCn1c(=O)c2cnc(Nc3ccc(N4CCN(C)CC4)cc3)nc2n1-c1ccc2c(n1)C(=O)N(C)C2 [Example 33, 2-allyl-1-(6-methyl-7-oxo-6,7-dihydro-5H-pyrrolo[3,4-b]pyridin-2-yl)-6-((4-(4-methylpiperazin-1-yl)phenyl)amino)-1,2-dihydro-3H-pyrazolo[3,4-d]pyrimidin-3-one]	–	10 to 100 nM	> 1000 nM

— patent US11261192B2, “Substituted 1,2-dihydro-3H-pyrazolo[3,4-D]pyrimidin-3-ones” (Recurium IP Holdings, LLC, priority 2018, dated 2022)
